This note sets out measurements from patent publication EP0203488A2, “7-Azolyl-1-cyclopropyl-1,4-dihydro-4-oxo-3-quinoline carboxylic acids and 1,8-naphthyridine carboxylic acids, process for their preparation and bactericidal agents containing them” (BAYER AG, priority 1985, dated 1986).

Holding throughout (test): Agar dilution test (Isosensitest medium), MIC
Common to all, as to format: cell-based

One assay has as its system Klebsiella pneum. 63. Conditions: Agardilutionstest / Isosensitestmedium, read-out: MHK-Werte. From the text: (§1) In der nachstehenden Tabelle sind die MHK-Werte einiger der erfindungsgemäßen Verbindungen im Vergleich zu Ciprofloxacin angegeben.
The next assay relates to Proteus vulg. 1017. Conditions: Agardilutionstest / Isosensitestmedium, read-out: MHK-Werte.
Excerpt: as §1

The test system of a further assay is Klebsiella pneum. 8085. Conditions: Agardilutionstest / Isosensitestmedium, read-out: MHK-Werte.
Excerpt: as §1

For another assay, the system named is E.coli Neum. As to conditions: Escherichia coli, Agardilutionstest / Isosensitestmedium, read-out: MHK-Werte.
Excerpt: as §1

The subject of another assay is Pseudom.aerug.Ellsw. Conditions: Agardilutionstest / Isosensitestmedium, read-out: MHK-Werte.
Excerpt: as §1

For another assay, the system named is Staph. aur. FK 422. As to conditions: Agardilutionstest / Isosensitestmedium, read-out: MHK-Werte.
Excerpt: as §1

In another assay the test system is E.coli T 7. Conditions: Escherichia coli, T7, Agardilutionstest / Isosensitestmedium, read-out: MHK-Werte.
Excerpt: as §1

For another assay, the system named is Streptococcus faec.27101. As to conditions: Agardilutionstest / Isosensitestmedium, read-out: MHK-Werte.
Excerpt: as §1

The test system of the next assay is Staph. aur. 1756. As to conditions: Agardilutionstest / Isosensitestmedium, read-out: MHK-Werte.
Excerpt: as §1

For the next assay, the system named is Staph. aur. 133. Conditions: Agardilutionstest / Isosensitestmedium, read-out: MHK-Werte.
Excerpt: as §1

≈ marks a conversion by molar mass, not a printed value.

In the case of `O=C(O)c1cn(C2CC2)c2c(Cl)c(-n3ccnc3)c(F)cc2c1=O` [Beispiel 20, 8-Chlor-1-cyclopropyl-6-fluor-1,4-dihydro-7-(1-imidazolyl)-4-oxo-3-chinolincarbonsäure], the MIC in the assay with Klebsiella pneum. 63 was determined as 0.25 µg/mL (≈ 0.719 µM); in the assay with Proteus vulg. 1017, 0.25 µg/mL (≈ 0.719 µM); with Klebsiella pneum. 8085, 0.03 µg/mL (≈ 0.0863 µM); in the assay on E.coli Neum. it was 0.03 µg/mL (≈ 0.0863 µM); in the assay on Pseudom.aerug.Ellsw., 0.5 µg/mL (≈ 1.44 µM); with Staph. aur. FK 422 it was 0.03 µg/mL (≈ 0.0863 µM). Further, the MIC with E.coli T 7 turned out to be 0.03 µg/mL (≈ 0.0863 µM); with Streptococcus faec.27101, 0.125 µg/mL (≈ 0.359 µM); in the assay with Staph. aur. 1756 it was 0.03 µg/mL (≈ 0.0863 µM); with Staph. aur. 133, 0.03 µg/mL (≈ 0.0863 µM).
Turning to `O=C(O)c1cn(C2CC2)c2cc(-n3cccc3)c(F)cc2c1=O` [Beispiel 1, 1-Cyclopropyl-6-fluor-1,4-dihydro-4-oxo-7-(1-pyrrolyl)-3-chino-lincarbonsäure], the MIC is 0.125 µg/mL (≈ 0.4 µM) in the assay on Klebsiella pneum. 63; 0.25 µg/mL (≈ 0.801 µM) with Proteus vulg. 1017; 0.06 µg/mL (≈ 0.192 µM) in the assay with Klebsiella pneum. 8085; 0.06 µg/mL (≈ 0.192 µM) in the assay with E.coli Neum.; 0.5 µg/mL (≈ 1.6 µM) with Pseudom.aerug.Ellsw.; 0.03 µg/mL (≈ 0.0961 µM) in the assay with Staph. aur. FK 422. Also, the MIC in the assay with E.coli T 7 was found to be 0.06 µg/mL (≈ 0.192 µM); in the assay with Streptococcus faec.27101, 0.25 µg/mL (≈ 0.801 µM); in the assay with Staph. aur. 1756, 0.03 µg/mL (≈ 0.0961 µM); in the assay with Staph. aur. 133, 0.03 µg/mL (≈ 0.0961 µM).
In the case of `CCn1cc(C(=O)O)c(=O)c2cc(F)c(-n3ccnc3)c(F)c21` [EP 115 049, 1-Ethyl-6,8-difluor-1,4-dihydro-7-(1-imidazolyl)-4-oxo-3-chinolincarbonsäure, reference compound], the MIC in the assay with Klebsiella pneum. 63 is 0.5 µg/mL (≈ 1.57 µM); in the assay with Proteus vulg. 1017 it was 0.5 µg/mL (≈ 1.57 µM); with Klebsiella pneum. 8085, 0.25 µg/mL (≈ 0.783 µM); with E.coli Neum., 0.125 µg/mL (≈ 0.392 µM); in the assay on Pseudom.aerug.Ellsw. it was 1 µg/mL (≈ 3.13 µM); in the assay on Staph. aur. FK 422, 0.5 µg/mL (≈ 1.57 µM). For the same compound, the MIC was found to be 0.125 µg/mL (≈ 0.392 µM) in the assay on E.coli T 7, 2 µg/mL (≈ 6.26 µM) in the assay with Streptococcus faec.27101, 1 µg/mL (≈ 3.13 µM) with Staph. aur. 1756 and 1 µg/mL (≈ 3.13 µM) in the assay on Staph. aur. 133.
In the case of `O=C(O)c1cn(C2CC2)c2c(F)c(-n3cccc3)c(F)cc2c1=O` [Beispiel 2, 1-Cyclopropyl-6,8-difluor-1,4-dihydro-4-oxo-7-(1-pyrrolyl)-3-chinolincarbon-säure], the MIC was determined as 0.5 µg/mL (≈ 1.51 µM) in the assay with Klebsiella pneum. 63; 0.5 µg/mL (≈ 1.51 µM) with Proteus vulg. 1017; 0.125 µg/mL (≈ 0.378 µM) with Klebsiella pneum. 8085; 0.25 µg/mL (≈ 0.757 µM) in the assay with E.coli Neum.; 1 µg/mL (≈ 3.03 µM) with Pseudom.aerug.Ellsw.; 0.06 µg/mL (≈ 0.182 µM) with Staph. aur. FK 422. Further, the MIC was 0.125 µg/mL (≈ 0.378 µM) in the assay with E.coli T 7, 0.25 µg/mL (≈ 0.757 µM) with Streptococcus faec.27101, 0.06 µg/mL (≈ 0.182 µM) in the assay with Staph. aur. 1756 and 0.06 µg/mL (≈ 0.182 µM) in the assay on Staph. aur. 133.
`O=C(O)c1cn(C2CC2)c2c(F)c(-n3ccnc3)c(F)cc2c1=O` [Beispiel 21, 1-Cyclopropyl-6,8-difluor-1,4-dihydro-7-(1-imidazolyl)-4-oxo-3-chinolincarbonsäure]: the MIC with Klebsiella pneum. 63 was 0.06 µg/mL (≈ 0.181 µM); in the assay with Proteus vulg. 1017 it was 0.125 µg/mL (≈ 0.377 µM); with Klebsiella pneum. 8085, 0.03 µg/mL (≈ 0.0906 µM); in the assay with E.coli Neum. it was 0.03 µg/mL (≈ 0.0906 µM); in the assay with Pseudom.aerug.Ellsw., 0.25 µg/mL (≈ 0.755 µM); in the assay on Staph. aur. FK 422, 0.125 µg/mL (≈ 0.377 µM). The MIC in the assay on E.coli T 7 is 0.03 µg/mL (≈ 0.0906 µM); in the assay on Streptococcus faec.27101, 0.5 µg/mL (≈ 1.51 µM); in the assay on Staph. aur. 1756, 0.125 µg/mL (≈ 0.377 µM); in the assay with Staph. aur. 133, 0.125 µg/mL (≈ 0.377 µM).
